Here are results for eleven molecules from US20070060558A1 (PALUMED S.A., priority 2004, published 2007).

≈ marks a conversion by molar mass, not a printed value. Like-named read-outs stand apart in the source and are kept apart here.

Series [1] deals with Staphylococcus aureus MSSA CIP 4.83. Nature of the series: Antibacterial activity (MIC/MBC). The note with it: S. aureus MSSA CIP 4.83. Format: cell-based.
The next series relates to H. influenzae CIP 102514. Nature of the series: Antibacterial activity (MIC/MBC). Format: cell-based, Haemophilus influenzae.
Series [2] concerns S. pneumoniae PRSP clinical isolate. Nature of the series: Antibacterial activity (MIC/MBC). Format: cell-based, Streptococcus pneumoniae.
Series [3] deals with E. faecalis VRE CIP 104676. Nature of the series: Antibacterial activity (MIC/MBC). The format is cell-based, Enterococcus faecalis. The note with it: E. faecalis VRE CIP 104676.
Series [4] has as its system S. pneumoniae PRSP CIP 104471. In words: Antibacterial activity (MIC/MBC). Format: cell-based, Streptococcus pneumoniae.
Series [5] in a line: Stability in solution at pH 7 (HPLC purity over time). The format is physicochemical. The note with it: pH 7, 37° C. On the procedure: (§1) The stability of the aminoquinoline-cephalosporin_hybrid molecules given as examples was determined in solution at 37° C., at physiological pH (pH 7, phosphate buffer/acetonitrile, 75/25 v/v) and at acidic pH (pH 1, 0.1 M HCl/ethanol, 70/30 v/v) by high pressure liquid chromatography coupled to a UV-visible detector (Beckman Coulter ODS C18 column, 5 μm, 4.6×250 mm; eluents: A: 0.1% TFA, B: CH3CN/H2O 90/10 0.1% TFA, gradient: from 10% to 100% of B in 30 minutes, and then 100% of B for 10 minutes, flow rate 1 mL/minutes, λ=254 nm, volume injected: 10 μL).

Series [6] relates to Human lung fibroblast cells (ATCC CCL-171). In words: Cytotoxicity (MTT) assay. The note with it: for % of survival cells compared to the untreated controls: 18 hr treatment. How it is done:
Cellular toxicity was measured by a colorimetric assay that makes use of the tetrazolium salt, MTT. Human lung fibroblast cells (ATCC CCL-171) were plated in 96-well plates at 10^4 cells per well and incubated under 5% CO2 at 37° C. for 24 hr to allow adherence of cells to the plate. Test compounds were prepared as a stock solution at 1 mg/mL in 1% DMSO/water and diluted with water for the serial dilutions (500-7.8 μg/mL). Cells underwent a 18 hr treatment under 5% CO2 at 37° C. with experimental drugs. Corresponding controls received either no drug treatment or treatment with SDS (sodium dodecyl sulfate). The optical density of each sample was read on a microplate spectrophotometer reader at 600 nm and cell survival was expressed as a fraction of that of untreated controls. A drug is said cytotoxic when this fraction is ≦−30%

Series [7] in a line: Stability in solution at pH 1 (HPLC purity over time). The note with it: pH 1, 37° C. The format is physicochemical. How it is done: as §1
The mark [8] stands for this setting: Staphylococcus aureus, read-out: MBC.
[9] abbreviates: Staphylococcus aureus, read-out: MIC.
Where [10] appears, read: Haemophilus influenzae, CIP102514.
The mark [11] stands for this setting: Streptococcus pneumoniae, PRSP, read-out: MIC.
Where [12] appears, read: Enterococcus faecalis, read-out: MIC.
[13] abbreviates: Streptococcus pneumoniae, read-out: MIC.
Where [14] appears, read: Haemophilus influenzae, CIP102514, H. influenzae CIP 102514, read-out: MIC.
Where [15] appears, read: Haemophilus influenzae, CIP102514, H. influenzae CIP 102514, read-out: MBC.

Turning to `CC(C)(C)C(=O)OCOC(=O)[C@@H]1N2C(=O)[C@@H](NC(=O)C3CCN(c4ccnc5cc(Cl)ccc45)CC3)[C@H]2SC1(C)C` [PA 1007, (2S,5R,6R)-6-{[1-(7-Chloroquinolin-4-yl)-piperidine-4-carbonyl]-amino}-3,3-dimethyl-7-oxo-4-thia-1-aza-bicyclo[3.2.0]heptane-2-carboxylic acid 2,2-dimethyl-propionyloxymethyl ester], the MBC in series [1] (setting [8]) was 0.49 µg/mL (≈ 0.812 µM). Also, the MIC in series [1] (setting [9]) came out at 0.012 µg/mL (≈ 0.0199 µM).

In the case of `CC1(C)S[C@@H]2[C@H](NC(=O)Cc3ccccc3)C(=O)N2[C@H]1C(=O)O` [Penicillin G, reference compound], in series [1], the MBC worked out at 0.06 µg/mL (≈ 0.179 µM) and the MIC was 0.008 µg/mL (≈ 0.0239 µM).

For the molecule `CC(=O)OCC1=C(C(=O)O)N2C(=O)[C@@H](NC(=O)CCNc3ccnc4cc(Cl)ccc34)[C@H]2SC1` [PA 1037], the MBC with H. influenzae CIP 102514 (setting [10]) was 25 µg/mL (≈ 49.5 µM); in series [2] (Streptococcus pneumoniae), 6.25 µg/mL (≈ 12.4 µM); in series [1] (setting [8]), above 50 µg/mL; in series [3] (Enterococcus faecalis) it was 25 µg/mL (≈ 49.5 µM); in series [4] (Streptococcus pneumoniae) it was 3.12 µg/mL (≈ 6.18 µM). Besides, the MIC stood at 6.25 µg/mL (≈ 12.4 µM) in the series with H. influenzae CIP 102514 (setting [10]); 3.12 µg/mL (≈ 6.18 µM) in series [2] (setting [11]); 0.39 µg/mL (≈ 0.772 µM) in series [1] (setting [9]); 6.25 µg/mL (≈ 12.4 µM) in series [3] (setting [12]); 1.56 µg/mL (≈ 3.09 µM) in series [4] (setting [13]).

As to `CC(=O)OCC1=C(C(=O)O)N2C(=O)[C@@H](NC(=O)CNc3ccnc4cc(Cl)ccc34)[C@H]2[S+]([O-])C1.Cl` (stereo partly drawn) [PA 1088, (6R,7R-3-Acetoxymethyl-7-[2-7-chloroquinolin-4-ylamino)acetylamino]-5,8-dioxo-5λ^4-thia-1-aza-bicyclo[4.2.0]oct-2-ene-2-carboxylic acid hydrochloride], the “Purity of the hybrid molecules (as a percentage) as a function of time (hours)” value in series [5] (time 0 h) amounted to 100%; in series [5] (time 1 h) it was 100%; in series [5] (time 2 h), 100%; in series [5] (time 4 h) it was 100%; in series [5] (time 24 h) it was 81%.

As to `CCCCCCCCCCCCOS(=O)(=O)[O-].[Na+]` [SDS, sodium dodecyl sulfate, reference compound], the “% of survival cells compared to the untreated controls” value is “+2.1%” in series [6] (7.8 μg/mL); −7.0% in series [6] (15.6 μg/mL); −16.4% in series [6] (31.2 μg/mL); −77.9% in series [6] (62.5 μg/mL); −81.2% in series [6] (125 μg/mL); −81.1% in series [6] (250 μg/mL). Further, in series [6] (500 μg/mL), the “% of survival cells compared to the untreated controls” value was −83.0%. For the same molecule, the “concentration at which the threshold of cytotoxicity (−30%) is exceeded” value in series [6] (human, 18 hr) is at least 31200 ng/mL. Also, the “human lung fibroblast cells killed” value in series [6] (human, 18 hr) was “more than 80%”.

In the case of `CC(=O)OCC1=C(C(=O)O)N2C(=O)[C@@H](N)[C@H]2SC1` [7-ACA, 7-aminocephalosporanic acid, reference compound], the MIC against H. influenzae CIP 102514 (H. influenzae CIP 102514) is 50 µg/mL (≈ 184 µM); in series [2] it was 50 µg/mL (≈ 184 µM); in series [1], 50 µg/mL (≈ 184 µM); in series [3] it was above 50 µg/mL; in series [4] it was 50 µg/mL (≈ 184 µM).

For `O=C(O)CNc1ccnc2cc(Cl)ccc12` [PA 1117, (7-Chloroquinolin-4-ylamino)acetic acid, reference compound], the MIC in the series on H. influenzae CIP 102514 (setting [14]) is 50 µg/mL (≈ 211 µM); in series [2] (setting [11]), 50 µg/mL (≈ 211 µM); in series [1] (setting [9]), above 50 µg/mL; in series [3] (setting [12]) it was above 50 µg/mL; in series [4] (setting [13]), 50 µg/mL (≈ 211 µM).

As to `CC(=O)OCC1=C(C(=O)O)N2C(=O)[C@@H](NC(=O)CNc3ccnc4cc(Cl)ccc34)[C@H]2SC1.Cl` [PA 1089, (6R,7R)-3-Acetoxymethyl-7-[2-(7-chloroquinolin-4-ylamino)-acetylamino]-8-oxo-5-thia-1-aza-bicyclo[4.2.0]oct-2-ene-2-carboxylic acid hydrochloride], the “Purity of the hybrid molecules (as a percentage) as a function of time (hours)” value worked out at 100% in series [7] (time 0 h); 96% in series [7] (time 1 h); 88% in series [7] (time 2 h); 81% in series [7] (time 4 h); 24% in series [7] (time 24 h); 100% in series [5] (time 0 h). Moreover, the “Purity of the hybrid molecules (as a percentage) as a function of time (hours)” value is 100% in series [5] (time 1 h); 100% in series [5] (time 2 h); 100% in series [5] (time 4 h); 98% in series [5] (time 6 h); 97% in series [5] (time 8 h); 92% in series [5] (time 15 h). In series [5] (time 24 h), the “Purity of the hybrid molecules (as a percentage) as a function of time (hours)” value turned out to be 83%. For the same molecule, the MBC with H. influenzae CIP 102514 (setting [15]) is above 50 µg/mL; in series [2] (Streptococcus pneumoniae) it was 0.39 µg/mL; in series [1] (setting [8]) it was 0.39 µg/mL; in series [3] (Enterococcus faecalis), 12.5 µg/mL; in series [4] (Streptococcus pneumoniae), 0.39 µg/mL. Also, the MIC is 3.12 µg/mL with H. influenzae CIP 102514 (setting [14]); 0.39 µg/mL in series [2] (setting [11]); 0.2 µg/mL in series [1] (setting [9]); 6.25 µg/mL in series [3] (setting [12]); 0.39 µg/mL in series [4] (setting [13]).

As for `CC(=O)OCC1=C(C(=O)O)N2C(=O)[C@@H](NC(=O)CCCNc3ccnc4cc(Cl)ccc34)[C@H]2SC1` [PA 1053, (6R,7R-3-Acetoxymethyl-7-[4-7-chloroquinolin-4-ylamino)-butyrylamino]-8-oxo-5-thia-1-aza-bicyclo[4.2.0]oct-2-ene-2-carboxylic acid], the MBC against H. influenzae CIP 102514 (setting [10]) is 25 µg/mL (≈ 48.2 µM); in series [2] (Streptococcus pneumoniae) it was 6.25 µg/mL (≈ 12 µM); in series [1] (setting [8]) it was above 50 µg/mL; in series [3] (Enterococcus faecalis) it was above 50 µg/mL; in series [4] (Streptococcus pneumoniae), 3.12 µg/mL (≈ 6.01 µM). The MIC was 6.25 µg/mL (≈ 12 µM) against H. influenzae CIP 102514 (setting [10]); 3.12 µg/mL (≈ 6.01 µM) in series [2] (setting [11]); 0.78 µg/mL (≈ 1.5 µM) in series [1] (setting [9]); 25 µg/mL (≈ 48.2 µM) in series [3] (setting [12]); 1.56 µg/mL (≈ 3.01 µM) in series [4] (setting [13]).

Turning to `CC(=O)OCC1=C(C(=O)O)N2C(=O)[C@@H](NC(=O)CNc3ccnc4cc(Cl)ccc34)[C@H]2[S+]([O-])C1` (stereo partly drawn) [PA 1092, (6R,7R-3-Acetoxymethyl-7-[2-7-chloroquinolin-4-ylamino)acetylamino]-5,8-dioxo-5λ^1-thia-1-aza-bicyclo[4.2.0]oct-2-ene-2-carboxylic acid], the MBC in the series on H. influenzae CIP 102514 (setting [10]) was 50 µg/mL (≈ 98.6 µM); in series [2] (Streptococcus pneumoniae) it was 12.5 µg/mL (≈ 24.7 µM); in series [1] (setting [8]), above 50 µg/mL; in series [3] (Enterococcus faecalis) it was above 50 µg/mL; in series [4] (Streptococcus pneumoniae), 3.12 µg/mL (≈ 6.15 µM). Also, the MIC was 12.5 µg/mL (≈ 24.7 µM) in the series on H. influenzae CIP 102514 (setting [10]); 6.25 µg/mL (≈ 12.3 µM) in series [2] (setting [11]); 12.5 µg/mL (≈ 24.7 µM) in series [1] (setting [9]); above 50 µg/mL in series [3] (setting [12]); 1.56 µg/mL (≈ 3.08 µM) in series [4] (setting [13]).

As to `CC(=O)OCC1=C(C(=O)O)N2C(=O)[C@@H](NC(=O)C3CCN(c4ccnc5cc(Cl)ccc45)CC3)[C@H]2SC1.Cl` [PA 1074], the MBC with H. influenzae CIP 102514 (setting [15]) is above 50 µg/mL; in series [2] (Streptococcus pneumoniae), 50 µg/mL; in series [1] (setting [8]), 1.56 µg/mL; in series [3] (Enterococcus faecalis) it was above 50 µg/mL; in series [4] (Streptococcus pneumoniae), 50 µg/mL. Moreover, the MIC with H. influenzae CIP 102514 (setting [14]) was found to be 50 µg/mL; in series [2] (setting [11]), 25 µg/mL; in series [1] (setting [9]), 0.78 µg/mL; in series [3] (setting [12]) it was 50 µg/mL; in series [4] (setting [13]) it was 25 µg/mL. Further, the “Purity of the hybrid molecules (as a percentage) as a function of time (hours)” value in series [5] (time 0 h) is on record as 100%; in series [5] (time 1 h), 100%; in series [5] (time 2 h), 100%; in series [5] (time 4 h), 100%; in series [5] (time 6 h), 100%; in series [5] (time 8 h), 97%. Moreover, the “Purity of the hybrid molecules (as a percentage) as a function of time (hours)” value turned out to be 88% in series [5] (time 15 h) and 87% in series [5] (time 24 h).
